US12358890B2, “Substituted tetrahydroisoquinoline derivative as a D1 positive allosteric modulator” (UCB Biopharma SRL, priority 2019, dated 2025)

How the values were obtained:
dopamine D1 receptor = target: T1, dopamine D1 receptor (Homo sapiens, UniProt P21728); assay: cAMP HTRF potentiation assay (in the presence of EC20 dopamine); type: cell-based; conditions: for EC50: potentiation of cAMP levels with EC20 dopamine (1.1 nM), LMtk (Ltk-) mouse fibroblast cells expressing the dopamine D1 receptor; for Emax: with EC20 dopamine, dopamine maximum = 100%, read-out: Erel (relative efficacy, maximal % potentiation relative to dopamine maximal response)
T1 construct: host or cells: LMtk (Ltk-) mouse fibroblast cells
Source text: Assays have been designed to measure the effects of compounds in accordance with the present invention in the absence of dopamine (“activation assay”) and in the presence of dopamine (“potentiation assay”).
The potentiation assay measures the ability of compounds to increase the levels of cAMP produced by a low-threshold concentration of dopamine. The concentration of dopamine used ([EC20]) is designed to produce 20% stimulation compared to the maximal response (100%) seen with increasing the concentration of dopamine. To measure this potentiation increasing concentrations of the compound with the [EC20] of dopamine are incubated and the potentiation is measured as increases in cAMP production and concentration of compound which produces 50% of the potentiation of the cAMP levels is measured.
• a. METHODS D1 Cell Culture Cells were cultured at 37° C. in a humidified atmosphere of 5% CO2. Cells were grown in DMEM-F12+GlutaMAX™-I medium (GIBCO®, Invitrogen, Merelbeke, Belgium) containing 10% fetal bovine serum (BioWhittaker®, Lonza, Verviers, Belgium), 400 μg/mL Geneticin (GIBCO®), 100 IU/mL Penicillin and 100 IU/mL Streptomycin (Pen-Strep solution, BioWhittaker®). […] Using homogenous time-resolved fluoresence technology, the assay is based on competition between native cAMP produced by cells and cAMP labelled with the dye d2. The tracer binding is determined by an anti-cAMP antibody labeled with cryptate. The effects of the compound alone (agonism) was determined by performing the assay in the absence of dopamine, whilst the effect of the compound as a positive allosteric modulator (PAM) was determined in the presence of an EC20 concentration of dopamine. Cells (20,000 per well) are incubated in 384 plates for 1 hour at room temperature in a final volume of 20 μL HBSS (Lonza, with calcium, magnesium and HEPES buffer 20 mM, pH 7.4) containing: isobutyl methylxanthine (Sigma, 0.1 mM final), varying concentrations of test compound (typically 10^−9.5M to 10^−4.5M) in the presence and absence of dopamine (1.1 nM final). The reaction is then terminated and the cells lysed by adding the d2 detection reagent in lysis buffer (10 microL) and the cryptate reagent in lysis buffer (10 microl) according to manufacturer's instructions. This is then incubated for a further 60 min at room temperature and changes in HTRF fluorescent emission ratio determined according to manufacturer's instructions using an Envision plate reader (Perkin Elmer, Zaventem, Belgium) with laser excitation. All incubations were performed in duplicate and results were compared to a concentration-effect curve to dopamine. (10^−11M to 10^−6M). • c. […]

CYP3A4 = target: T2, CYP3A4 (Homo sapiens, UniProt P08684); assay: In vitro assessment of CYP3A4 inhibition potential using cryopreserved human microsomes (midazolam substrate); type: in vitro ADME; conditions: cryopreserved human microsomes (pooled donors), probe midazolam 2.5 μM, read-out: percentage of inhibition of CYP3A4
T2 construct: cryopreserved human microsomes (pooled donors) are divided on a 48 well collagen coated plate; from tissue; host or cells: cryopreserved human microsomes (pooled donors)
Method: The objective of the human microsome assay is to characterize the inhibition potential of Compound of formula (I) by measuring the CYP3A4 activities after its co-incubation with midazolam, a specific CYP3A4 substrate.
To this aim, cryopreserved human microsomes (pooled donors) are divided on a 48 well collagen coated plate so that the final concentration is 0.25 mg/ml. The UCB compound is then added in the wells at 1 μM and 20 μM concentration in duplicate. After 30 minutes incubation, midazolam is added at 2.5 μM concentration. After 15 minutes, an aliquot is removed and placed into an equal volume of methanol containing internal standard. The samples are centrifuged at 2500 rpm at 4° C. for 20 min. An aliquot of supernatant is diluted with deionised water and levels of 1-hydroxymidazolam is quantified using generic LC MS/MS methods. The concentrations are compared to those obtained after midazolam incubation at the same concentration but without UCB compound pre-incubation. The results are expressed as % of inhibition. […] Azamulin Assay Cryopreserved human hepatocytes (pool of 20 donors, BSU batch from Celsis/IVT/Bioreclamation) were thawed accordingly the provider's information. Viability (trypan blue exclusion) was higher than 75%. […]

[1] = Intrinsic clearance in cryopreserved human hepatocyte suspension (Azamulin Assay); type: in vitro ADME
Method: The clearance is generally evaluated by using hepatocyte incubations and scaling calculations, assuming the main elimination pathway is metabolism, according to protocols described herein. The intrinsic clearance evaluated from hepatocytes is expressed in μl/min/10^6 cells.
To this aim, cryopreserved human microsomes (pooled donors) are divided on a 48 well collagen coated plate so that the final concentration is 0.25 mg/ml. The UCB compound is then added in the wells at 1 μM and 20 μM concentration in duplicate. After 30 minutes incubation, midazolam is added at 2.5 μM concentration. After 15 minutes, an aliquot is removed and placed into an equal volume of methanol containing internal standard. The samples are centrifuged at 2500 rpm at 4° C. for 20 min. An aliquot of supernatant is diluted with deionised water and levels of 1-hydroxymidazolam is quantified using generic LC MS/MS methods. The concentrations are compared to those obtained after midazolam incubation at the same concentration but without UCB compound pre-incubation. The results are expressed as % of inhibition. […]
Samples are analyzed by LC-MS-MS bioanalytical method to measure the concentration of UCB compound. The concentration versus time profile is fitted to determine the intrinsic clearance (Clint) expressed as μl/min/10^6 cells.

[2] = target: T3, human GABAA (α1β2γ2) channels (Homo sapiens, UniProt P14867+P18507+P47870); assay: Automated patch clamp studies on the GABAA receptor (IonFlux HT, CHO-K1 cells); type: cell-based; conditions: compound at 10 μM, GABA 15 μM as agonist, read-out: percentage of inhibition of the GABAA receptor
T3 construct: expressed in transfected cells; host or cells: CHO-K1 cells
T3 sequence (P14867 28-456): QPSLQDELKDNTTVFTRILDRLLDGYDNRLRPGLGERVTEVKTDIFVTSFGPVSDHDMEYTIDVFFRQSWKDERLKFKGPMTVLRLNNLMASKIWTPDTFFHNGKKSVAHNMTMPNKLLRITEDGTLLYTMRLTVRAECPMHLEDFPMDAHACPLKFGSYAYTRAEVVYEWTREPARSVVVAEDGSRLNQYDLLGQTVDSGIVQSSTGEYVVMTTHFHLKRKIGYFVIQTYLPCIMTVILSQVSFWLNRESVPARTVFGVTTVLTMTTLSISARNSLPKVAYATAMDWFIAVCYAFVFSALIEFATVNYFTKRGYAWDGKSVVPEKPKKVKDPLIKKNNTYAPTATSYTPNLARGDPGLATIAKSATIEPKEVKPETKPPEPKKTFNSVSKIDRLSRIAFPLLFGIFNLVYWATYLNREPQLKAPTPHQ
T3 sequence (P47870 25-512 limits assumed): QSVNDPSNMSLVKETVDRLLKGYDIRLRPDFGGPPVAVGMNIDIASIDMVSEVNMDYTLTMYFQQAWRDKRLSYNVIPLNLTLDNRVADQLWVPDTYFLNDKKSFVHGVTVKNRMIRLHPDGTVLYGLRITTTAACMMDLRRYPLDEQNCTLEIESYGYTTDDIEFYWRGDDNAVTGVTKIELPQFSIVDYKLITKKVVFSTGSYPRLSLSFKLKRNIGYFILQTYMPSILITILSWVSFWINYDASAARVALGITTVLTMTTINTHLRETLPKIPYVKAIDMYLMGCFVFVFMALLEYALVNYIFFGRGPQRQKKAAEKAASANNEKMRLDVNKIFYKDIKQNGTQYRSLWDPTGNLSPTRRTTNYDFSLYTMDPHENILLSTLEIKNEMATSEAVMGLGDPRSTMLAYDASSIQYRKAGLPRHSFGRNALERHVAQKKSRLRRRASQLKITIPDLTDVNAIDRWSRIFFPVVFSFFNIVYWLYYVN
T3 sequence (P18507 40-475): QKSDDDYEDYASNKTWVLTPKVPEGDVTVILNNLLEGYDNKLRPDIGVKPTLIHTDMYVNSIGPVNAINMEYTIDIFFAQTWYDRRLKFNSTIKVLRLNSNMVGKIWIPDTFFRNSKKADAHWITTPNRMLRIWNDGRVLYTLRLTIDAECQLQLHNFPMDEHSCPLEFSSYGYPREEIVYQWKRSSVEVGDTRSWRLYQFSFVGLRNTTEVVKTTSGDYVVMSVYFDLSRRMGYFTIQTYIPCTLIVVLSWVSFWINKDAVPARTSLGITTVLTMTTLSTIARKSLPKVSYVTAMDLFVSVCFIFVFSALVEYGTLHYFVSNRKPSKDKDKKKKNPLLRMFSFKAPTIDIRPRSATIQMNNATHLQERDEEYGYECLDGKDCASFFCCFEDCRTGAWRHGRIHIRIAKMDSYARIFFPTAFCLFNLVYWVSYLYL

T1 sequence (P21728 whole entry, species assumed): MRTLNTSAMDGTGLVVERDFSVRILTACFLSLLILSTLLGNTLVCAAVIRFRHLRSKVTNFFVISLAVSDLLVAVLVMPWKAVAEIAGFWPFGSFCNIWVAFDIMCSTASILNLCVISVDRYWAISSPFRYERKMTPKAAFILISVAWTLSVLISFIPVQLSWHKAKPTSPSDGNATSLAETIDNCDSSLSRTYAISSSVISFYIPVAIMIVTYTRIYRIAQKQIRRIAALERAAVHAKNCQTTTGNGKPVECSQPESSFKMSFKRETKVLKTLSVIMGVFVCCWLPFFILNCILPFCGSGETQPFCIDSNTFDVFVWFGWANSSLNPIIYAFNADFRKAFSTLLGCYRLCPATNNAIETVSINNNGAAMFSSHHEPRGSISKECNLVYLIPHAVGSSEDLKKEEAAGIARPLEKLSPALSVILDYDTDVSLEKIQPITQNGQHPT
T2 sequence (P08684 whole entry): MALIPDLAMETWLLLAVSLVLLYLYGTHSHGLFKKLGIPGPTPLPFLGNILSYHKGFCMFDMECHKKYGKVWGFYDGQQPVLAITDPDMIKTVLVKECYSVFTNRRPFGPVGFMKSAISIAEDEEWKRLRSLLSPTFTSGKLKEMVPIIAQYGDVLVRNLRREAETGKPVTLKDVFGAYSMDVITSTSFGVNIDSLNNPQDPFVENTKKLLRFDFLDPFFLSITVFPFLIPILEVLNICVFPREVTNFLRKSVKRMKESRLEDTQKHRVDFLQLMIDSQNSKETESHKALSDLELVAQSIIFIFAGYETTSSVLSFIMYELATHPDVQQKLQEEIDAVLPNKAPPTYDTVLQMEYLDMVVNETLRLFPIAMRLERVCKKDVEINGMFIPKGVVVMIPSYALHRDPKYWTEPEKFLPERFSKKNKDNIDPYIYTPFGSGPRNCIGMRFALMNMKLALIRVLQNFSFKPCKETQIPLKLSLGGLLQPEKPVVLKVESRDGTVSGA

EC50 (dopamine D1 receptor) [nM]	Emax (dopamine D1 receptor) [%]	inhibition at 15 min, 1 μM (CYP3A4; compound at 1 μM) [%]	inhibition at 15 min, 20 μM (CYP3A4; compound at 20 μM) [%]	hepatocyte CLint at 0.5 μM [1] [µL/min/1e6 cells]	inhibition at 10 µM [2] [%]	SMILES
~126	~64	~20	~28	~8.8	~13	C[C@H]1c2cccc([C@](C)(O)CF)c2CCN1C(=O)Cc1c(Cl)cnc(CO)c1Cl [compound of formula (Ia), 2-[3,5-dichloro-2-(hydroxymethyl)-4-pyridyl]-1-[(1S)-5-[(1S)-2-fluoro-1-hydroxy-1-methyl-ethyl]-1-methyl-3,4-dihydro-1H-isoquinolin-2-yl]ethanone]
~200	~61			~9.2	~20	CC1c2cccc(C(C)(O)CF)c2CCN1C(=O)Cc1c(Cl)cnc(CO)c1Cl (stereo not shown) [(Ib)]
